This is an account of results in patent US6380229B1, “2-(N-cyanoimino)thiazolidin-4-one derivatives” (Fujimoto Co., Ltd., priority 2001, dated 2002).

For data set [1], the system named is high cholesterol-fed hamsters. As to the kind of experiment: Lipid lowering effects in high cholesterol-fed hamsters. Conditions: serum. In kind it is in vivo, Male Syrian hamsters. The method, then: Lipid Lowering Effects in High Cholesterol-fed Hamsters
The compounds were tested for lipid lowering effects in high cholesterol-fed hamsters in accordance with the method described in Jpn Pharmacol Ther, 23 (suppl 4), s1047-1053 (1995). Male Syrian hamsters were fed the high cholesterol diet supplemented with 1% cholesterol and 10% coconut oil for 3 weeks. Before drug administration, blood was collected from the orbital venous plexus under ether anesthesia, and a serum total cholesterol level was measured. […] The designated doses of the compound of Example 1 or Bezafibrate were administrated to test groups and the vehicle solution was given to the control group orally once a day for 7 days under the high cholesterol diet feeding. The intact group of animals were fed normal diet. After 4 hours of the final administration, blood was collected by cardiac puncture, and the total cholesterol and triglyceride levels in the serum were determined by the enzymatic method.
The reduction rate (%) was calculated according to the following equation: [formula]

The subject of data set [2] is Salmonella typhimurium TA100 and TA98. The data set is described as follows: Mutagenicity test (reverse mutation test). The format is cell-based. The settings on record: absence or presence of S9 mix. The source says: The mutagenicity of the compound of Example 1 was examined by a reverse mutation test using Salmonella typhimurium TA100 and TA98 in the absence or presence of S9 mix.

The subject of data set [3] is fructose-induced hyperlipidemic rats. As to the kind of experiment: Hypotriglyceridemic activity in fructose-induced hyperlipidemic rats. In kind it is in vivo, Sprague Dawley rats. Conditions: serum, 30 mg/kg p.o. once a day for 7 days, blood 2 hours after final administration; for inhibition in vivo at 30 mg/kg: Rattus norvegicus, po, read-out: Triglyceride (% Reduction). The method, then:
Hypotriglyceridemic Activity in Fructose-induced Hyperlipidemic Rats
The compounds were tested for a hypotriglyceridemic activity in fructose-induced hyperlipidemic rats in accordance with the method described in Nippon Yakurigaku Zasshi, 92 (3), 175-180 (1988). […] 75% fructose solution as drinking water was given to the animals for 7 days, while normal water was given to the intact groups ad libitum. During the experimental period the test compounds suspended in 3% gum arabic were given to the test group orally once a day in a daily dose of 30 mg/kg. The vehicle solution was given to the control group and the intact group. After 2 hours from the final administration, blood was collected from the abdominal aorta under ether anesthesia, and levels of total cholesterol and triglyceride in the serum were measured. The reduction rate (%) was calculated according to the following equation: [formula]
Above experimental model is well known as a model of hypertriglicemia.

Another data set deals with mice. As to the kind of experiment: Acute toxicity, single oral dose. The format is in vivo. Conditions: oral 2000 mg/kg, observed daily for 2 weeks. The source says:
The animals were observed daily for 2 weeks after the administration.

Setting [4] is: 30 mg/kg orally once a day for 7 days, minus = increase.
The mark [5] stands for this setting: 60 mg/kg orally once a day for 7 days, minus = increase.
The mark [6] stands for this setting: 120 mg/kg orally once a day for 7 days, minus = increase.
Where [7] appears, read: 15 mg/kg orally once a day for 7 days, minus = increase.
[8] abbreviates: Table 4 (Example 65), 15 mg/kg p.o.

Take `CC(C)(Oc1ccc(CCNC(=O)c2ccc(Cl)cc2)cc1)C(=O)O` [Bezafibrate, reference compound]: the “Total cholesterol (% Reduction)” value in data set [1] (setting [4]) is on record as −5%; in data set [1] (setting [5]), −0%; in data set [1] (setting [6]), 20%. Also, the “Triglyceride (% Reduction)” value in data set [1] (setting [4]) is listed as −21%; in data set [1] (setting [5]), −18%; in data set [1] (setting [6]) it was 16%.
For the compound `N#CN=C1NC(=O)/C(=C\c2ccc(C=Cc3ccccc3)cc2)S1` [Example 1, 2-(N-Cyanoimino)-5-[(E)-4-stylylbenzylidene]thiazolidin-4-one], the “Total cholesterol (% Reduction)” value was found to be 26% in data set [1] (setting [7]), 25% in data set [1] (setting [4]), 29% in data set [1] (setting [5]) and 41% in data set [1] (setting [6]). Further, the “Triglyceride (% Reduction)” value is on record as 60% in data set [1] (setting [7]); 62% in data set [1] (setting [4]); 69% in data set [1] (setting [5]); 80% in data set [1] (setting [6]); 47% in data set [3]. Besides, the “mutagenicity (number of revertant colonies)” value in data set [2] is listed as “not mutagenic”. In addition, the “single dose toxicity: deaths” value in the data set with mice was “no deaths were observed”.
Turning to `CC(=Cc1ccccc1)c1ccc(/C=C2/SC(=NC#N)NC2=O)cc1` [Example 2, 2-(N-Cyanoimino)-5-[(E)-4-(a-methylstylyl)benzylidene]thiazolidin-4-one], the “Total cholesterol (% Reduction)” value in data set [1] (setting [8]) stood at 27%. The results for the “Triglyceride (% Reduction)” value in data set [1] (setting [8]) and in data set [3] were 57% and 67%, respectively.
Turning to `N#CN=C1NC(=O)C(=Cc2ccc(COCc3ccccc3)cc2)S1` [Example 3, 2-(N-Cyanoimino)-5-[4-(benzyloxymethyl)benzylidene]thiazolidin-4-one], in data set [1] (setting [8]), the “Total cholesterol (% Reduction)” value came to 16% and the “Triglyceride (% Reduction)” value was determined as 17%. The inhibition in vivo at 30 mg/kg in data set [3] is 64%.
Regarding `CC(=Cc1ccc(/C=C2/SC(=NC#N)NC2=O)cc1)c1ccccc1` [Example 4, 2-(N-Cyanoimino)-5-[(E)-4-(b-methylstylyl)benzylidene]thiazolidin-4-one], in data set [3], the “Triglyceride (% Reduction)” value was determined as 42%.
`N#CN=C1NC(=O)C(=Cc2ccc(Oc3ccc(Cl)cc3)cc2)S1` [Example 6, 2-(N-Cyanoimino)-5-[4-(4-chlorophenoxy)benzylidene]thiazolidin-4-one]: in data set [3], the inhibition in vivo at 30 mg/kg amounted to 84%.
Take `N#CN=C1NC(=O)C(=Cc2ccc(Sc3ccccc3)cc2)S1` [Example 7, 2-(N-Cyanoimino)-5-(4-phenylthiobenzylidene)thiazolidin-4-one]: in data set [1] (setting [8]), the “Total cholesterol (% Reduction)” value is 18% and the “Triglyceride (% Reduction)” value came out at 12%. In addition, in data set [3], the inhibition in vivo at 30 mg/kg was found to be 60%.
Take `N#CN=C1NC(=O)/C(=C\c2ccc(C=Cc3ccccc3F)cc2)S1` [Example 8, 2-(N-Cyanoimino)-5-[(E)-4-(2-fluorostylyl)benzylidene]thiazolidin-4-one]: the “Triglyceride (% Reduction)” value in data set [3] is reported as 47%.
Turning to `Cc1ccc(C)c(Oc2ccc(C=C3SC(=NC#N)NC3=O)cc2)c1` [Example 9, 2-(N-Cyanoimino)-5-[4-(2,5-dimethylphenoxy)benzylidene]thiazolidin-4-one], in data set [1] (setting [8]), the “Total cholesterol (% Reduction)” value is 15% and the “Triglyceride (% Reduction)” value was determined as 15%. In data set [3], the inhibition in vivo at 30 mg/kg was 49%.
Take `N#CN=C1NC(=O)C(=Cc2ccc(OCCc3ccccc3)cc2)S1` [Example 10, 2-(N-Cyanoimino)-5-(4-phenethyloxybenzylidene)thiazolidin-4-one]: the inhibition in vivo at 30 mg/kg in data set [3] was 39%. In the data set with mice, the “single dose toxicity: deaths” value was “no deaths were observed”.
`CC(COc1ccc(C=C2SC(=NC#N)NC2=O)cc1)c1ccccc1` (stereo not shown) [Example 11, 2-(N-Cyanoimino)-5-[4-(2-phenylpropoxy)benzylidene]thiazolidin-4-one]: in data set [3], the inhibition in vivo at 30 mg/kg is 62%.
On the same count and under the same terms, next, `N#CN=C1NC(=O)C(=Cc2cccc(OCCc3ccccc3)c2)S1` [Example 12, 2-(N-Cyanoimino)-5-(3-phenethyloxybenzylidene)thiazolidin-4-one]: 59%; `N#CN=C1NC(=O)C(=Cc2ccc(OCc3ccccc3)cc2)S1` [Example 13, 2-(N-Cyanoimino)-5-(4-benzyloxybenzylidene)thiazolidin-4-one]: 55%.
In the case of `N#CN=C1NC(=O)C(=Cc2ccc(-c3cc4cc(Cl)ccc4o3)cc2)S1` [Example 14, 2-(N-Cyanoimino)-5-[4-(5-chlorobenzofuran-2-yl)benzylidene]thiazolidin-4-one], in data set [1] (setting [8]), the “Total cholesterol (% Reduction)” value is 11% and the “Triglyceride (% Reduction)” value is given as 24%. Further, the inhibition in vivo at 30 mg/kg in data set [3] came out at 36%.
Consider `COc1ccc(C=Cc2ccc(/C=C3/SC(=NC#N)NC3=O)cc2)cc1` [Example 15, 2-(N-Cyanoimino)-5-[(E)-4-(4-methoxystylyl)benzylidene]thiazolidin-4-one], for which, in data set [1] (setting [8]), the “Total cholesterol (% Reduction)” value was found to be 32% and the “Triglyceride (% Reduction)” value stood at 61%. Moreover, in data set [3], the “Triglyceride (% Reduction)” value is recorded as 47%.
Consider `N#CN=C1NC(=O)C(=Cc2cccc(Oc3ccccc3)c2)S1` [Example 16, 2-(N-Cyanoimino)-5-(3-phenoxybenzylidene)thiazolidin-4-one], for which the inhibition in vivo at 30 mg/kg in data set [3] stood at 54%.
Turning to `N#CN=C1NC(=O)C(=Cc2ccc(OCc3ccc4c(c3)OCO4)cc2)S1` [Example 17, 2-(N-Cyanoimino)-5-[4-(1,3-benzodioxol-5-ylmethoxy)benzylidene]thiazolidin-4-one], in data set [3], the inhibition in vivo at 30 mg/kg was determined as 37%.
On to `N#CN=C1NC(=O)C(=Cc2ccc(OCc3ccc(Cl)cc3)cc2)S1` [Example 19, 2-(N-Cyanoimino)-5-[4-(4-chlorobenzyloxy)benzylidene]thiazolidin-4-one], for which, in data set [3], the inhibition in vivo at 30 mg/kg came out at 38%.
Still for that read-out and setting: the figure for `N#CN=C1NC(=O)C(=Cc2ccccc2OCCc2ccccc2)S1` [Example 21, 2-(N-Cyanoimino)-5-(2-phenethyloxybenzylidene)thiazolidin-4-one] is 48%; for `N#CN=C1NC(=O)C(=Cc2ccc(Oc3ccccc3)cc2)S1` [Example 22, 2-(N-Cyanoimino)-5-(4-phenoxybenzylidene)thiazolidin-4-one] it is 65%.
On the same count and under the same terms, next, `CCC(Oc1ccc(C)cc1)c1ccccc1` (stereo not shown) [Example 32]: 47%.
